According to paper PMC3598705, “Evaluation of Toxicity and Biodegradability of Cholinium Amino Acids Ionic Liquids” (PLoS ONE, 2013):
Read-outs that look alike come from different tables or passages of the source.

Experiments:
[1] = biological target: T1, AChE type VI-S (from the electric eel) (Electrophorus electricus, UniProt O42275); assay: AChE inhibition assay (colorimetric, DTNB reduction); format: biochemical; settings: DTNB 0.5 mM, AChE 0.05 U mL^−1, acetylthiocholine iodide 0.5 mM, 37 °C, phosphate buffer pH 8.0; mean ± SD; read-out: EC50±SD (toxicity toward AChE)
T1 construct: purchased Sigma–Aldrich, USA type VI-S (catalogue number not given)
T1 sequence (O42275 24-633): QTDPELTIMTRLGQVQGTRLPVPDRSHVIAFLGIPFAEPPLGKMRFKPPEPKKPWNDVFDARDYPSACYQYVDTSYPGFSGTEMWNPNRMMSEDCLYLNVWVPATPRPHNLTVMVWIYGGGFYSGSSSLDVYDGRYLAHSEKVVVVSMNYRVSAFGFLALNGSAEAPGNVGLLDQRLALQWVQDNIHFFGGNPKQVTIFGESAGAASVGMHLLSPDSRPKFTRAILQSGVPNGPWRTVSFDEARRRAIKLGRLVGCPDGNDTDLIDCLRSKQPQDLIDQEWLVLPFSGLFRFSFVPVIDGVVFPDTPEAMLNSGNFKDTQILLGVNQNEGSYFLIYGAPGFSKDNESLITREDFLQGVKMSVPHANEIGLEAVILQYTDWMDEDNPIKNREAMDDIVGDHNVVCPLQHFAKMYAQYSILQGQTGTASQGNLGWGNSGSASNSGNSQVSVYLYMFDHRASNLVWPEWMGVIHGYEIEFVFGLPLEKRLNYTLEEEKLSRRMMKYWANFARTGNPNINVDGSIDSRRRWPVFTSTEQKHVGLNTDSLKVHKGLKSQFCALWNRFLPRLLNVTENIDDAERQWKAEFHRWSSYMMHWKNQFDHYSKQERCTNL
Description: A colorimetric assay based on reduction of DTNB was used to measure AChE inhibition as described previously, [24], in the presence of a phosphate buffer system in order to eliminate the effects of pH changes on enzyme activity. Briefly, IL solutions were prepared with 0.2 M phosphate buffer (pH 8.0) in 96-well microtiter plates. The enzyme (0.2 U mL^−1, plus 0.25 mg mL^−1 bovine serum albumin in the same phosphate buffer), and DTNB (2 mM, plus 0.185 mg mL^−1 NaHCO3 in the same phosphate buffer) were added to each well and kept at 37 °C for 5 min, and then the reaction was initiated by adding acetylthiocholine iodide (2 mM in the same phosphate buffer). In the experimental reactions, the final concentrations of DTNB, acetylthiocholine iodide and AChE were 0.5 mM, 0.5 mM and 0.05 U mL^−1, respectively. Except where stated otherwise, the concentration range used to calculate EC50 of the [Ch][AA] ILs was 0–50 mM. However, for strongly alkaline [Ch][AA] ILs such as [Ch][Lys], the maximum concentration used was 20 mM in order to avoid changes in enzyme activity due to pH changes that would be caused if the IL exceeded the buffering capacity of the phosphate buffer. Acidic amino acid-derived ILs ([Ch][Asp] and [Ch][Glu]) were used up to 80 mM. The control compounds cholinium chloride ([Ch][Cl]), [Bmim][BF4] and acetone were used at concentration ranges of 0–80 mM, 0–50 mM and 10 mM–2.5 M, respectively. Control experiments without enzyme were carried out under otherwise identical conditions. Reduction of DTNB was monitored at 405 nm and at 10 second intervals in a microplate reader (Wallac 1420 VICTOR3, PerkinElmer, Singapore) over a period of 5 min. Enzyme activity was expressed as ΔOD min^−1 obtained via linear regression analysis. All assays were performed at least in triplicate.
All data were analyzed by One-Way analysis of variance using SPSS 11.5 (SPSS Inc., USA). EC50 values are presented as mean ± standard deviation (SD) from at least three repeats, and confidence intervals (α = 0.05) of EC50 are also presented. The One-Way ANOVA was used to judge if the difference between the different ILs groups was significant. When the p value was<0.05, the difference was considered to be significant.

[2] = test system: E. coli ATCC 8739; assay: Antimicrobial activity, tube dilution method; format: cell-based, Escherichia coli; settings: four repeated experiments
Description: (§1) Antimicrobial activity was measured via the tube dilution method as described previously. Briefly, E. coli, S. aureus, S. enteritidis and L. monocytogenes were cultured in Mueller-Hinton broth for 24 h at 37 °C. A microorganism suspension of 10^6 cfu mL^−1 (cfu, colony forming units) was prepared from each culture. IL solutions (31.3–1500 mM) were prepared with sterilized Mueller-Hinton broth, and then were sterilized by filtration (0.45 µm pore-diameter membrane). The various permutations of microorganism suspension (50 µL) and IL solution (50 µL) were mixed in 96-well microtiter plate. Growth of the microorganisms was determined visually after incubation for 24 h at 37 °C. Controls were conducted under the same conditions: negative controls without microorganisms and positive controls without ILs. The lowest concentration at which there was no visible growth (turbidity) was taken as the minimal inhibitory concentration (MIC). Samples of 20 µL from each well were spread onto Mueller-Hinton agar medium with inactivates (0.3% lecithin, 3% polysorbate 80 and 0.1% L-cysteine) and incubated for 48 h at 37 °C. The lowest concentration of the IL that killed 99.9% or more of the test bacterium was taken as the minimum biocidal concentration (MBC).

[3] = test system: S. enteritidis ATCC 14128; assay: Antimicrobial activity, tube dilution method; format: cell-based, Salmonella enteritidis; settings: four repeated experiments; for MIC: 24 h at 37 °C; for MBC: kills 99.9% or more
Description: as §1

[4] = test system: S. aureus ATCC 29213; assay: Antimicrobial activity, tube dilution method; format: cell-based, Staphylococcus aureus; settings: four repeated experiments
Description: as §1

[5] = test system: L. monocytogenes ATCC 19115; assay: Antimicrobial activity, tube dilution method; format: cell-based, Listeria monocytogenes; settings: four repeated experiments
Description: as §1

| Structure (SMILES) | EC50 [1] [mM] | MIC ([2]; 24 h at 37 °C) [mM] | MBC ([2]; kills 99.9% or more) [mM] | MIC [3] [mM] | MIC ([4]; 24 h at 37 °C) [mM] | MBC ([4]; kills 99.9% or more) [mM] | MIC ([5]; 24 h at 37 °C) [mM] | MBC ([5]; kills 99.9% or more) [mM] | MBC [3] [mM] | further results |
| --- | --- | --- | --- | --- | --- | --- | --- | --- | --- | --- |
| NC(=O)C[C@H](N)C(=O)O [[Ch][Asn]] | 3.94 ± 0.05 | – | – | – | – | – | – | – | – | – |
| C[N+](C)(C)CCO.NCCCC[C@H](N)C(=O)[O-] [[Ch][Lys]] | 3.48 ± 0.13 | 31.3 | 46.9 | 31.3 | 62.5 | 93.8 | 62.5 | 93.8 | – | – |
| CCCCn1cc[n+](C)c1 [[Bmim][BF4], 1-Butyl-3-methylimidazolium tetrafluoroborate, reference compound] | 0.33 ± 0.01 | – | – | – | – | – | – | – | – | MIC ([2]; Escherichia coli, ATCC8739, 24 h at 37 °C, read-out: MIC): 2.3 mM; MBC ([2]; Escherichia coli, ATCC8739, kills 99.9% or more, read-out: MBC): 4.6 mM; MIC ([3]; Salmonella enterica, read-out: MIC): 2.3 mM; MBC ([3]; Salmonella enterica, read-out: MBC): 2.3 mM; MIC ([4]; Staphylococcus aureus, ATCC29213, 24 h at 37 °C, read-out: MIC): 2.3 mM; MBC ([4]; Staphylococcus aureus, ATCC29213, kills 99.9% or more, read-out: MBC): 4.6 mM; MIC ([5]; Listeria monocytogenes, ATCC19115, 24 h at 37 °C, read-out: MIC): 2.3 mM; MBC ([5]; Listeria monocytogenes, ATCC19115, kills 99.9% or more, read-out: MBC): 4.6 mM |
| C[N+](C)(C)CCO.NC(=O)C[C@H](N)C(=O)[O-] [[Ch][Asn]] | – | 93.8 | 125 | 93.8 | 188 | 250 | 250 | 250 | 125 | – |
| C[C@@H](O)[C@H](N)C(=O)[O-].C[N+](C)(C)CCO [[Ch][Thr]] | – | 31.3 | 62.5 | 46.9 | 125 | 250 | 93.8 | 125 | 62.5 | – |
| C[N+](C)(C)CCO.N[C@@H](Cc1c[nH]c2ccccc12)C(=O)[O-] [[Ch][Trp]] | 2.45 ± 0.02 | 23.4 | 31.3 | 23.4 | 46.9 | 62.5 | 31.3 | 46.9 | 31.3 | – |
| C[N+](C)(C)CCO.N[C@@H](CO)C(=O)[O-] [[Ch][Ser]] | – | 31.3 | 62.5 | 46.9 | 125 | 250 | 93.8 | 125 | 62.5 | – |
| C[N+](C)(C)CCO.O=C([O-])[C@@H]1CCCN1 [[Ch][Pro]] | – | 46.9 | 62.5 | 46.9 | 93.8 | 125 | 62.5 | 93.8 | 62.5 | – |
| C[C@H](N)C(=O)O [[Ch][Ala]] | 3.33 ± 0.1 | – | – | – | – | – | – | – | – | – |
| N[C@@H](CO)C(=O)O [[Ch][Ser]] | 3.56 ± 0.15 | – | – | – | – | – | – | – | – | – |
| NCC(=O)O [[Ch][Gly]] | 3.83 ± 0.17 | – | – | – | – | – | – | – | – | – |
| C[N+](C)(C)CCO.N[C@@H](CCC(=O)O)C(=O)[O-] [[Ch][Glu]] | 3.72 ± 0.07 | 500 | 750 | 125 | 750 | 750 | 500 | 750 | 188 | – |
| NC(=O)CC[C@H](N)C(=O)O [[Ch][Gln]] | 3.51 ± 0.16 | – | – | – | – | – | – | – | – | – |
| N[C@@H](Cc1cnc[nH]1)C(=O)O [[Ch][His]] | 3.63 ± 0.04 | – | – | – | – | – | – | – | – | – |
| CSCC[C@H](N)C(=O)O [[Ch][Met]] | 3.13 ± 0.14 | – | – | – | – | – | – | – | – | – |
| O=C(O)[C@@H]1CCCN1 [[Ch][Pro]] | 3.37 ± 0.16 | – | – | – | – | – | – | – | – | – |
| C[C@H](N)C(=O)[O-].C[N+](C)(C)CCO [[Ch][Ala]] | – | 46.9 | 93.8 | 62.5 | 188 | 250 | 188 | 250 | 93.8 | – |
| CSCC[C@H](N)C(=O)[O-].C[N+](C)(C)CCO [[Ch][Met]] | – | 31.3 | 62.5 | 31.3 | 125 | 250 | 125 | 250 | 62.5 | – |
| C[N+](C)(C)CCO.N[C@@H](Cc1cnc[nH]1)C(=O)[O-] [[Ch][His]] | – | 46.9 | 62.5 | 46.9 | 93.8 | 125 | 93.8 | 125 | 62.5 | – |
| C[C@@H](O)[C@H](N)C(=O)O [[Ch][Thr]] | 3.45 ± 0.15 | – | – | – | – | – | – | – | – | – |
| C[N+](C)(C)CCO.NCC(=O)[O-] [[Ch][Gly]] | – | 125 | 250 | 93.8 | 250 | 500 | 250 | 500 | 125 | – |
| CC(=O)[O-].C[N+](C)(C)CCO [[Ch][AcO], Cholinium acetate, reference compound] | – | 500 | 750 | 750 | 500 | 750 | 500 | 750 | 750 | – |
| C[N+](C)(C)CCO.NC(=O)CC[C@H](N)C(=O)[O-] [[Ch][Gln]] | – | 125 | 188 | 93.8 | 125 | 188 | 188 | 250 | 125 | – |
